From ChEMBL document CHEMBL1201862, “PubChem BioAssay data set” (2004)
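Values below derive from 48-hour exposures of cells grown in 96-well plates, with endpoints linearly interpolated between the two concentrations bracketing the appropriate inhibition level. Here, GI50 denotes the concentration required for 50% inhibition of growth.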 Calls of active or inactive are those of the source. Cut-off read from the data, not from the text of the source: active = GI50 up to about 1.1 µM and inactive = higher.

Key:
Assay in all cases: DTP human tumour cell line panel, 48 h
[1] = test system: DU-145
[2] = test system: U-251
[3] = test system: SR
[4] = test system: SNB-19
[5] = test system: CAKI-1
[6] = test system: PC-3
[7] = test system: OVCAR-8
[8] = test system: HL-60
[9] = test system: SF-295
[10] = test system: K562
[11] = test system: NCI-H522
[12] = test system: OVCAR-5
[13] = test system: RXF 393
[14] = test system: CCRF-CEM
[15] = test system: MOLT-4
[16] = test system: NCI/ADR-RES
[17] = test system: SK-MEL-28
[18] = test system: NCI-H460
[19] = test system: UO-31
[20] = test system: OVCAR-3

Compound | GI50 [1] | GI50 [2] | GI50 [3] | GI50 [4] | GI50 [5] | GI50 [6] | GI50 [7] | GI50 [8] | GI50 [9] | GI50 [10] | GI50 [11] | GI50 [12] | GI50 [13] | GI50 [14] | GI50 [15] | GI50 [16] | GI50 [17] | GI50 [18] | GI50 [19] | GI50 [20]
O=C1C(=O)N(c2cccc(C(F)(F)F)c2)C(=S)N1c1ccccc1 | 22.2 µM (inactive) | 31.6 µM (inactive) | 37.2 µM (inactive) | 40.5 µM (inactive) | 29.2 µM (inactive) | 30.8 µM (inactive) | 33.7 µM (inactive) | 32.7 µM (inactive) | 31.5 µM (inactive) | 34.5 µM (inactive) | 6.44 µM (inactive) | 30 µM (inactive) | 27.7 µM (inactive) | 35.9 µM (inactive) | 38 µM (inactive) | 31.8 µM (inactive) | 28 µM (inactive) | 2.32 µM (inactive) | 25.2 µM (inactive) | 
CC(=O)Nc1cc2cc(NS(=O)(=O)c3ccc(Cl)c(Cl)c3)ccc2oc1=O | > 100 µM (inactive) | 22.6 µM (inactive) | 33.9 µM (inactive) | 34.4 µM (inactive) | 20 µM (inactive) | 22.4 µM (inactive) | 17.8 µM (inactive) | 43.5 µM (inactive) | 19.6 µM (inactive) | 56.5 µM (inactive) | 23.4 µM (inactive) | > 100 µM (inactive) | 12.5 µM (inactive) | 53.8 µM (inactive) | 27.4 µM (inactive) | 34.2 µM (inactive) | 35 µM (inactive) | 37.8 µM (inactive) | 46 µM (inactive) | > 100 µM (inactive)
Cn1c(N)c(/N=N/c2ccc(S(N)(=O)=O)cc2)c(=O)n(C)c1=O | > 100 µM (inactive) | 45.9 µM (inactive) | > 100 µM (inactive) | 81.8 µM (inactive) | > 100 µM (inactive) | > 100 µM (inactive) | > 100 µM (inactive) | > 100 µM (inactive) | > 100 µM (inactive) | > 100 µM (inactive) | 80.9 µM (inactive) | > 100 µM (inactive) | > 100 µM (inactive) | > 100 µM (inactive) | > 100 µM (inactive) | > 100 µM (inactive) | > 100 µM (inactive) | > 100 µM (inactive) | > 100 µM (inactive) | > 100 µM (inactive)
COc1ccc2nc3cc(Cl)ccc3c(NCCCNCCCNc3c4ccc(Cl)cc4nc4ccc(OC)cc34)c2c1 | 0.0373 µM (active) | 0.0137 µM (active) | < 0.01 µM (active) | < 0.0179 µM (active) | 0.0156 µM (active) | 0.0241 µM (active) | < 0.01 µM (active) | 0.0278 µM (active) | < 0.01 µM (active) | < 0.01 µM (active) | 0.0128 µM (active) | < 0.0224 µM (active) | 0.224 µM (active) | < 0.01 µM (active) | 0.329 µM (active) | 0.581 µM (active) | 0.133 µM (active) | 0.0102 µM (active) | < 0.0236 µM (active) | 0.162 µM (active)
O=c1c2cc(I)ccc2nc(Sc2ncccc2[N+](=O)[O-])n1Cc1ccccc1 | 22.5 µM (inactive) | 35.2 µM (inactive) | 7.08 µM (inactive) | 45.9 µM (inactive) | 25.8 µM (inactive) | 26.5 µM (inactive) | 31 µM (inactive) | 0.122 µM (active) | 60 µM (inactive) | 38.5 µM (inactive) | 13.2 µM (inactive) | > 100 µM (inactive) | 13.4 µM (inactive) | 0.249 µM (active) | 23.2 µM (inactive) | 17.2 µM (inactive) | > 100 µM (inactive) | 29.4 µM (inactive) | 14.3 µM (inactive) | 22 µM (inactive)
CC1(C)CN=C(Nc2ccc(F)c(F)c2)S1 | > 100 µM (inactive) | > 100 µM (inactive) | > 100 µM (inactive) | > 100 µM (inactive) | > 100 µM (inactive) | > 100 µM (inactive) | > 100 µM (inactive) | > 100 µM (inactive) | > 100 µM (inactive) | > 100 µM (inactive) | > 100 µM (inactive) | > 100 µM (inactive) | > 100 µM (inactive) | > 100 µM (inactive) | > 100 µM (inactive) | > 100 µM (inactive) | > 100 µM (inactive) |  | > 100 µM (inactive) | > 100 µM (inactive)
N#C/C(=C(\O)C(=O)O)c1ccc(-c2cccc3ccccc23)cc1 | > 100 µM (inactive) | > 100 µM (inactive) | 3.11 µM (inactive) | > 100 µM (inactive) | > 100 µM (inactive) | > 100 µM (inactive) | > 100 µM (inactive) | 19.5 µM (inactive) | > 100 µM (inactive) | 2.65 µM (inactive) | > 100 µM (inactive) | > 100 µM (inactive) | > 100 µM (inactive) | 14.1 µM (inactive) | 1.51 µM (inactive) | > 100 µM (inactive) | > 100 µM (inactive) | > 100 µM (inactive) | > 100 µM (inactive) | > 100 µM (inactive)
